Assay: Dissolution Test (Paddle Method), Method 2 of the Japanese Pharmacopoeia 14th Revised Edition
Type: physicochemical
Conditions: dissolution rate of olmesartan medoxomil, paddle 50 revolutions per minute, 900 mL JP-2, absorptiometry, average of two tablets
Protocol: Dissolution properties were measured for the drug products as obtained in the Examples and Comparative Examples by the following method, and the results are shown in the Table.
Testing was carried out in accordance with Method 2 of the Dissolution Test (Paddle Method) described in the 14th Revised Edition of the Japanese Pharmacopoeia, at the paddle revolution speed of 50 revolutions per minute and using 900 mL of Japanese Pharmacopoeia Solution 2 (JP-2) for the test solution. The test solution was sampled at 30 minutes and 60 minutes after the start of testing, and the dissolution rate of olmesartan medoxomil was measured by absorptiometry. [Toyama Sangyo Co., Ltd.: DISSOLUTION TESTER NTR-6000, Shimadzu Corporation: SPECTROPHOTOMETER UV-1600] Tests were carried out for two tablets, and average values are shown.

## CCCc1nc(C(C)(C)O)c(C(=O)OCc2oc(=O)oc2C)n1Cc1ccc(-c2ccccc2-c2nnn[nH]2)cc1 [Comparative Example C-3, Olmesartan medoxomil]
Sampled at 30 minutes
  Dissolution rate (%) After 30 minutes: 60.0%
Sampled at 60 minutes
  Dissolution rate (%) After 60 minutes: 68.4%
